Measured values published in ChEMBL document CHEMBL3627608, “Crystal structures of human RIP2 kinase catalytic domain complexed with ATP-competitive inhibitors: Foundations for understanding inhibitor selectivity” (Bioorg Med Chem, 2015).

Tests used:
[1] = target: T1, Dual specificity tyrosine-phosphorylation-regulated kinase 3 (Homo sapiens) (UniProt O43781); experiment: Inhibition of DYRK3 (unknown origin) at 10 uM after 120 mins P33 radiolabeled kinase activity assay
T1 sequence (whole entry): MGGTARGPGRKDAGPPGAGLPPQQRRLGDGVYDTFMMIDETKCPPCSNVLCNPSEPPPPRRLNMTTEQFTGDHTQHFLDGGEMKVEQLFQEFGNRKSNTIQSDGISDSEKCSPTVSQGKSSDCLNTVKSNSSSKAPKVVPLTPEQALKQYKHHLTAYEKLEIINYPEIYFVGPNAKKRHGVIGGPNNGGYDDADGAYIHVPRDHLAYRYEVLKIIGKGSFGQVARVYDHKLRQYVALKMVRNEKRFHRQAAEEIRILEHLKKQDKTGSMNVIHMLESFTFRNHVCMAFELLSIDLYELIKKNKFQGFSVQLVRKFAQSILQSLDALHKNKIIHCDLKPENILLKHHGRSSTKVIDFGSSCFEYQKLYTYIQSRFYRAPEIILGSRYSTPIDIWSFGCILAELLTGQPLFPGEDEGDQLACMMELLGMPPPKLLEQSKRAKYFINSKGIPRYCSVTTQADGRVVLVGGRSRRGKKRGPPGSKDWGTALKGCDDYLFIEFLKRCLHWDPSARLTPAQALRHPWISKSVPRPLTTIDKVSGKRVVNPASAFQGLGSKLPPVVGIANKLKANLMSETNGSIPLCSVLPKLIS

[2] = target: Mitogen-activated protein kinase 9 (Homo sapiens) (UniProt P45984); experiment: Inhibition of JNK2 (unknown origin) at 10 uM after 120 mins P33 radiolabeled kinase activity assay
[3] = target: Serine/threonine-protein kinase WNK2 (Homo sapiens) (UniProt Q9Y3S1); experiment: Inhibition of WNK2 (unknown origin) at 10 uM after 120 mins P33 radiolabeled kinase activity assay
[4] = target: Serine/threonine-protein kinase 10 (Homo sapiens) (UniProt O94804); experiment: Inhibition of LOK (unknown origin) at 10 uM after 120 mins P33 radiolabeled kinase activity assay
[5] = target: T2, MAP/microtubule affinity-regulating kinase 4 (Homo sapiens) (UniProt Q96L34); experiment: Inhibition of MARK4 (unknown origin) at 10 uM after 120 mins P33 radiolabeled kinase activity assay
T2 sequence (whole entry): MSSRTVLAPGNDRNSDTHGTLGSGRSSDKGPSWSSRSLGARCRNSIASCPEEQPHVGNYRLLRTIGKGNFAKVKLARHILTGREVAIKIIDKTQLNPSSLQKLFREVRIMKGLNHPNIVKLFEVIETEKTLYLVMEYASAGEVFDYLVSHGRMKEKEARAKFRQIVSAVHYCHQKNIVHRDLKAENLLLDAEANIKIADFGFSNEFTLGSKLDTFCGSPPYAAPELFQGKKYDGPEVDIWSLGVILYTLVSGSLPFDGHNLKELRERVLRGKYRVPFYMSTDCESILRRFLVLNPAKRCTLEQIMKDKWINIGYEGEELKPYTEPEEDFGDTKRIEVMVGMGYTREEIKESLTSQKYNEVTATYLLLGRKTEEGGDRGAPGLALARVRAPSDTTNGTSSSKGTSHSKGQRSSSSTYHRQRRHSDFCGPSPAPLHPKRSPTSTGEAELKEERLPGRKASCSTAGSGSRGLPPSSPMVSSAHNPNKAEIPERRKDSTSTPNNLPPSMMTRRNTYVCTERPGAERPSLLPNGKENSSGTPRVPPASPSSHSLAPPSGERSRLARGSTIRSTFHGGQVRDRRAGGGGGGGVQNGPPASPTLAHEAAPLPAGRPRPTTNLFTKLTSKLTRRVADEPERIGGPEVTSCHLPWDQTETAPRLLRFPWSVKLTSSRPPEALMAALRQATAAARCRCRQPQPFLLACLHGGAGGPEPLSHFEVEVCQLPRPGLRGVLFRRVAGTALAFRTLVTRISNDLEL

[6] = target: Maternal embryonic leucine zipper kinase (Homo sapiens) (UniProt Q14680); experiment: Inhibition of MELK (unknown origin) at 10 uM after 120 mins P33 radiolabeled kinase activity assay
[7] = target: Rho-associated protein kinase 2 (Homo sapiens) (UniProt O75116); experiment: Inhibition of ROCK2 (unknown origin) at 10 uM after 120 mins P33 radiolabeled kinase activity assay
[8] = target: Cyclin-dependent kinase 5/CDK5 activator 1 (Homo sapiens) (UniProt Q00535+Q15078); experiment: Inhibition of CDK5/p25 (unknown origin) at 10 uM after 120 mins P33 radiolabeled kinase activity assay; type: protein-complex assay
[9] = target: T3, Serine/threonine-protein kinase ULK2 (Homo sapiens) (UniProt Q8IYT8); experiment: Inhibition of ULK2 (unknown origin) at 10 uM after 120 mins P33 radiolabeled kinase activity assay
T3 sequence (whole entry): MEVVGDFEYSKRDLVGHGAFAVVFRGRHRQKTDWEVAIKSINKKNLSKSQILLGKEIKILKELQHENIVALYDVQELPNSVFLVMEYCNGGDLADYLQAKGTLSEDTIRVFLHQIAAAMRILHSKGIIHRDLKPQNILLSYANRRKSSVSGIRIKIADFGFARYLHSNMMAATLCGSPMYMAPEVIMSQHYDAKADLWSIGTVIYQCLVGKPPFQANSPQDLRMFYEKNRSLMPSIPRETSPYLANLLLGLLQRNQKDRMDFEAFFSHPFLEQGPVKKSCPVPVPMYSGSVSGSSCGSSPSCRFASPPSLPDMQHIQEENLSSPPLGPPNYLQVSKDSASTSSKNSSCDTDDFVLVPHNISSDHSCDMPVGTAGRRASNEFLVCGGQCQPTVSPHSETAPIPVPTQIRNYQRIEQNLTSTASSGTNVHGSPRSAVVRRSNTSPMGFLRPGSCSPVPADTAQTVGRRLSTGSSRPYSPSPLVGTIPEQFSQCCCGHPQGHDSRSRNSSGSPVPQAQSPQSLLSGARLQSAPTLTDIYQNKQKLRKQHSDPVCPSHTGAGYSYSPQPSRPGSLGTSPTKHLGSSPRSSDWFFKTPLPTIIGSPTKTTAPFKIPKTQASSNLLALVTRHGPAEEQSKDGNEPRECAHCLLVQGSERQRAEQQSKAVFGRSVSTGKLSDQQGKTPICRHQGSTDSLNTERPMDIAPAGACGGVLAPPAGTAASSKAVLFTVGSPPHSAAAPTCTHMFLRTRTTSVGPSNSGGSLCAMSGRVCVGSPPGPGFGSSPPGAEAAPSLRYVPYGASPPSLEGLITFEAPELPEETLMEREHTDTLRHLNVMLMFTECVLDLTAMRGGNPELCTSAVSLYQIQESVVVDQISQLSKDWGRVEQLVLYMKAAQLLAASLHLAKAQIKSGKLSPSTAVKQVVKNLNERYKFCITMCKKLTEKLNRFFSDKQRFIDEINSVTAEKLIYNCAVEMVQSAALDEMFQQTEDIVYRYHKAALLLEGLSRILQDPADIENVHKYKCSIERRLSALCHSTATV

[10] = target: CDK9/Cyclin K (Homo sapiens) (UniProt P50750+O75909); experiment: Inhibition of CDK9/cyclin K (unknown origin) at 10 uM after 120 mins P33 radiolabeled kinase activity assay; type: protein-complex assay

Mitogen-activated protein kinase 9 (Homo sapiens), sequence (P45984 whole entry, looked up): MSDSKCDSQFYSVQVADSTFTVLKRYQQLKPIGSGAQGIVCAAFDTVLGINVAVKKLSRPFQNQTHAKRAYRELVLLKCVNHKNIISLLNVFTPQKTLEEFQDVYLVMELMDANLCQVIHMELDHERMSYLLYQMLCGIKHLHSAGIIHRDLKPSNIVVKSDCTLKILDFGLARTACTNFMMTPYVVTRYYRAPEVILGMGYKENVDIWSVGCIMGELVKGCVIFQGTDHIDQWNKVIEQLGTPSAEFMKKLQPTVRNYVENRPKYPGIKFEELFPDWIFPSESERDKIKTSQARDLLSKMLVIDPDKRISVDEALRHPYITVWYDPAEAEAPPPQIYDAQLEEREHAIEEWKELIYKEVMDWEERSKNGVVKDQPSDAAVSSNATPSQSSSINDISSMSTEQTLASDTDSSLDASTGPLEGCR
Rho-associated protein kinase 2 (Homo sapiens), sequence (O75116 whole entry, looked up): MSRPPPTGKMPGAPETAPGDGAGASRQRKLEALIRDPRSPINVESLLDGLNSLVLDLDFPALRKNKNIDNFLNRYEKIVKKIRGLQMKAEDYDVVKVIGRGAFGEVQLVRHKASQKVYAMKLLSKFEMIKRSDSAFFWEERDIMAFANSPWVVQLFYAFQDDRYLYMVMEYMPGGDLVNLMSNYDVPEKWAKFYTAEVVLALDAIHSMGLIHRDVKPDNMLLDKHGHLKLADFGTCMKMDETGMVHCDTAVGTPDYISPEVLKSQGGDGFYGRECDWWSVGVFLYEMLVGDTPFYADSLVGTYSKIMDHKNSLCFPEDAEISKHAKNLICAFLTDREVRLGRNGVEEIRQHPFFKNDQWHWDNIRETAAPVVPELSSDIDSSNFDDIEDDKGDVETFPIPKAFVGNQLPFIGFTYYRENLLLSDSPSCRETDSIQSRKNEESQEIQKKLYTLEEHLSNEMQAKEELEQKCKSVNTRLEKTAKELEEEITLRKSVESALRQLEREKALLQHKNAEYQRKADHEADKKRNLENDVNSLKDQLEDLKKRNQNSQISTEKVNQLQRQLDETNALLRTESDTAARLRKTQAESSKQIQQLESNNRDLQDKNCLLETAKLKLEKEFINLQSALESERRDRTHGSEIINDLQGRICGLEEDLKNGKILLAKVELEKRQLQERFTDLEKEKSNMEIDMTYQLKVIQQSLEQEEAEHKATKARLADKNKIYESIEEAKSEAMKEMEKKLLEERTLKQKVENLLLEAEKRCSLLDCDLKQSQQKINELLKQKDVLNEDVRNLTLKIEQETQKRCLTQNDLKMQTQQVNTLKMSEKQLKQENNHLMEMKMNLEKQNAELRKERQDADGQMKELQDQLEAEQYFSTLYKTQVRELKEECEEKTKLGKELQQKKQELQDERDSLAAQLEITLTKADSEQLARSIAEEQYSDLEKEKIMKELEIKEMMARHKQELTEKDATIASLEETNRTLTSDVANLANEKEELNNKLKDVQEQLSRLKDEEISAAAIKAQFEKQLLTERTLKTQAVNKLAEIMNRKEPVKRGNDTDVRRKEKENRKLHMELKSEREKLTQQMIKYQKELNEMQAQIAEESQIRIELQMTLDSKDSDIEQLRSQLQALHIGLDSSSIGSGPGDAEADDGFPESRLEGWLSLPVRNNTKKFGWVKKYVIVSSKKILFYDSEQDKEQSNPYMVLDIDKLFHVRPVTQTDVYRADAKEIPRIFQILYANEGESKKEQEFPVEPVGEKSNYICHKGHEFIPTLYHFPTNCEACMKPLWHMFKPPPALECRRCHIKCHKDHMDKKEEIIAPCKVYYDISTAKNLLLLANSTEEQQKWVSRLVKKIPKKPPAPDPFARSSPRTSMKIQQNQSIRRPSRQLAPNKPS
Maternal embryonic leucine zipper kinase (Homo sapiens), sequence (Q14680 whole entry, looked up): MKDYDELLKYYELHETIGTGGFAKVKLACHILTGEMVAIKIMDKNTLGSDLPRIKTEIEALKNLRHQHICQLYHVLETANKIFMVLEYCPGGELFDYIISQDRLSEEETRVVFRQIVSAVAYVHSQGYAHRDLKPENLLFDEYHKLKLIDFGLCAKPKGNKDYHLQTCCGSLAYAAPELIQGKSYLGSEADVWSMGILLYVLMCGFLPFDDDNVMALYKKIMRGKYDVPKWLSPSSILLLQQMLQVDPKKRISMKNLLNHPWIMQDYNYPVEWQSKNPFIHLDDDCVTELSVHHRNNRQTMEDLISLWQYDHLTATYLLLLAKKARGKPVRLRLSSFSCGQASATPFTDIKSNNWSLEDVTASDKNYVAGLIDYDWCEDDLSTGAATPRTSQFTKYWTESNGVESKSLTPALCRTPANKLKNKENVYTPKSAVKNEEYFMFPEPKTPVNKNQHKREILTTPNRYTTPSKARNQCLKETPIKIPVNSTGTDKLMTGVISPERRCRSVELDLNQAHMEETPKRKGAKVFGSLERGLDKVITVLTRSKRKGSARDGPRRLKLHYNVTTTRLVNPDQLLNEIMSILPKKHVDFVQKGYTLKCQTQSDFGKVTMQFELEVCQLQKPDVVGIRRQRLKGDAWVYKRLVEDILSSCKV
Serine/threonine-protein kinase 10 (Homo sapiens), sequence (O94804 whole entry, looked up): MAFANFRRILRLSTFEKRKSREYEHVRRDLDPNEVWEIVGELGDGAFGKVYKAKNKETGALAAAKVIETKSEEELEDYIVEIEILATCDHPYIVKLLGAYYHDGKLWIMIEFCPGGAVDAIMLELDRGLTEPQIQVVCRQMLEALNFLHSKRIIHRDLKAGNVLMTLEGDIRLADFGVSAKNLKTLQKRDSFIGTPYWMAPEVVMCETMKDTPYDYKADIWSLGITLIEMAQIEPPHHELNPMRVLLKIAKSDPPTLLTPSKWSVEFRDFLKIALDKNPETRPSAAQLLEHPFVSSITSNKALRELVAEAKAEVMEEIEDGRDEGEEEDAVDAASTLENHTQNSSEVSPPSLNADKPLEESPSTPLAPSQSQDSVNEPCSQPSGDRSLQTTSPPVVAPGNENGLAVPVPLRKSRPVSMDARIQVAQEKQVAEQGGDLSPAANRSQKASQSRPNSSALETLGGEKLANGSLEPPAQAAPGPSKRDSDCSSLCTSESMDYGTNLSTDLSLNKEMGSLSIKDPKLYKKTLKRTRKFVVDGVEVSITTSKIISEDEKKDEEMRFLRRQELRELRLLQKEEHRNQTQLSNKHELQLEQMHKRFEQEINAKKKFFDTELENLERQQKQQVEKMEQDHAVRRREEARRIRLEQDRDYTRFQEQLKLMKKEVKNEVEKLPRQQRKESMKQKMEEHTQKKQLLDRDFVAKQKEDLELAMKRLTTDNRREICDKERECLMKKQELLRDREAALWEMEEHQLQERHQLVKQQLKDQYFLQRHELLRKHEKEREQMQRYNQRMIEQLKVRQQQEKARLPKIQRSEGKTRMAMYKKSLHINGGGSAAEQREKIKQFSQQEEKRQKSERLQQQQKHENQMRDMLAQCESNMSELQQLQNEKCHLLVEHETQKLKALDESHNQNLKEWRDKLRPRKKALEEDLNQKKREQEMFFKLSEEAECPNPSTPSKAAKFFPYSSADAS
Cyclin-dependent kinase 5/CDK5 activator 1 (Homo sapiens), sequence (Q00535 whole entry): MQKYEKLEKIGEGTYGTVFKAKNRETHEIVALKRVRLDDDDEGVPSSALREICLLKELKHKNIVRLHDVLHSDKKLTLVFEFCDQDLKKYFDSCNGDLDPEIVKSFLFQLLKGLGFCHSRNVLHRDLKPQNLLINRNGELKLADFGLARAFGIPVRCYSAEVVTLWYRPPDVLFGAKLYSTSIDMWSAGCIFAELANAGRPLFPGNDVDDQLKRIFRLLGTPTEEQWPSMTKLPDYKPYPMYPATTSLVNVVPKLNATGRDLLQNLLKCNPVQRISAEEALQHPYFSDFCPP
Cyclin-dependent kinase 5/CDK5 activator 1 (Homo sapiens), sequence (Q15078 99-307 partner limits assumed): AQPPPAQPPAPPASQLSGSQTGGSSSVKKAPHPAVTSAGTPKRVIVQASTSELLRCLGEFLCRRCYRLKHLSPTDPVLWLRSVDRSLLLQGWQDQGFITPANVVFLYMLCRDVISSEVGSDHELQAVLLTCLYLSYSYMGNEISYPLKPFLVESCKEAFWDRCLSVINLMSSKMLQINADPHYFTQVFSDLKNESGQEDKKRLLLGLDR

| inhibition [1] | inhibition [2] | inhibition [3] | inhibition [4] | inhibition [5] | inhibition [6] | inhibition [7] | inhibition [8] | inhibition [9] | inhibition [10] | Compound |
| --- | --- | --- | --- | --- | --- | --- | --- | --- | --- | --- |
| 8.42% | 9.13% | 3.46% | 28.4% | 12.5% | 8.47% | 6.87% | 1.93% | -2.46% | 3.39% | COCCNC(=O)c1ccc2c(c1)nc(-c1cnc(-c3ccc(Cl)cc3)[nH]1)n2CCOC |
| 10.3% | 13.5% | 43% | 74.8% | 39.1% | 69.3% | 14.8% | 92.6% | 17% | 6.34% | CS(=O)(=O)c1cccc(Nc2nccc(-c3sc(N4CCOCC4)nc3-c3cccc(NS(=O)(=O)c4c(F)cccc4F)c3)n2)c1 |
| 71.4% | 79.8% | 3.16% | 92.8% | 13.8% | -0.03% | 59.1% | 49.4% | -6.09% | 37% | CC(C)(C)c1cc(NC(=O)Nc2ccc(Oc3ccncc3)cc2)no1 |
